Test system: HIF1a protein activity
Assay: In vitro drug release from suture into DMEM medium, read out by HIF1a luciferase assay
Format: cell-based
Description: FIG. 1 is a graph plotting drug release in vitro from poly(lactic acid)/poly(lactic-co-glycolic acid (PLA/PLGA) sutures over time. Briefly, a mixture of PLA and PLA/GPLA suture was infused with 1,4-DPCA molecules during generation of the sutures. The concentration of DPCA was in all cases 5 mg/100 mg suture material as described below. The sutures, having different ratios of PLA and PLA/PLGA as described below, were tested for rate of drug release. Drug release was measured by HIF levels. The sutures were soaked in medium without serum for 24 hours and transferred to new medium for each timepoint identified on the graph. The medium was tested for HIF1a protein activity in a luciferase assay. The horizontal lines are controls as noted: at about 10000 luminescence units (LU) is a control for DMEM only; at about 18000 LU is a control for 25 μM DCPA; at about 29500 LU is a control for 50 μM DCPA; at about 39000 LU is a control for 100 μM DCPA; and at about 40500 LU is a control for 200 μM DCPA. The curve that is substantially at 10000 LU but dips below at day 12 represents a mixture of PLA and PLA/PLGA [50:50] at a ratio of 75 PLA:25 PLA/PLGA. The curve that starts below 10000 LU and increases to about 15000 LU at day 14.5 is PLA and PLA/PLGA [50:50] at a ratio of 75:25+DPCA. The curve that starts above 50000 and has a peak at day 15 above 40000 LU is PLA and PLA/PLGA[50:50] at a ratio of 50:50+DPCA. The curve that starts above 50000 LU and has a peak at day 7.5 at about 34000 LU represents PLA and PLA/PLGA [50:50] at a ratio of 75:25+DPCA.
A PLA/PGLA suture, infused with 1,4-DPCA molecules during generation of the sutures as described in Example 1 (i.e., materials are melted, DPCA added, and the final mixture cooled and pulled into sutures), was tested for rate of release of 1,4-DPCA into DMEM medium. Drug release was measured by HIF levels. The sutures were soaked in medium without serum for 24 hours and transferred to new medium for each timepoint (1 hour, 3 hours, Days 1, 2, 3, 6, 7, 8, 9, 10, 13, 14, 15, 16, 17 and 20). The medium was tested for HIF1a protein activity in a luciferase assay (Signosis, Inc) as described in ESKLA, K-L et al, Hypothermia augments stress response in mammalian cells. Free Radical Biology and Medicine, 2018 doi:10.1016/j.freeradbiomed.2018.04.571.
The results are shown in the graph at FIG. 1. The two heavy lines represented PLA/PLGA[50:50] 50:50+DPCA and PLA/PLGA[50:50] 75:25+DPCA are shown releasing the drug after one hour in the medium up to about 15 days in the medium after which the drug detection falls under the DMEM control.

O=C(O)c1c[nH]c2c(ccc3cccnc32)c1=O [DCPA, 1,4-dihydrophenonthrolin-4-one-3-carboxylic acid]
luminescence (HIF1a luciferase assay), control line (25 μM free drug control): about 18000 LU
luminescence (HIF1a luciferase assay), control line (50 μM free drug control): about 29500 LU
luminescence (HIF1a luciferase assay), control line (100 μM free drug control): about 39000 LU
luminescence (HIF1a luciferase assay), control line (200 μM free drug control): about 40500 LU

— US20220176011A1, “SCAR REDUCING WOUND CLOSURE MATERIALS” (Lankenau Institute for Medical Research, priority 2019, published 2022)
